Legend:
Human IL2 promoter = Human IL2 promoter reporter gene assay (RGA) in Jurkat cells; assay type: cell-based; conditions: Jurkat clone K22 290_H23, anti-CD28 mAb + PMA, 5.5 h
Experimental: Human IL2 Promoter Reporter Gene Assay (RGA) in Jurkat Cells
The transfected Jurkat clone K22 290_H23 was propagated in RPMI 1640 supplemented with 10% heat inactivated fetal calf serum, 50 μM 2-mercaptoethanol and 1 mg/ml Geneticin. The cell concentration should not exceed 1×10e6/ml during culturing. The cells should not exceed passage 30. Prior to the assay the cells were washed and prepared to the concentration of 2×10e6 cells/ml.
Compound dilutions were made as 2×-concentrated solutions then diluted ½ by addition to cells. Two hundred and fifty μl of compound dilution and 250 μl of cells were mixed together in wells of a 96-deep well plate. Cells/compounds premix were incubated 30 min at 37° C. and 5% CO2 directly in the deep well plate.
After pre-incubation of cells with compounds, cells were stimulated with anti-CD28 mAb (clone 15E8) at 3 μg/ml+PMA at 1 μg/ml. Both co-stimulants were diluted in culture medium at a 10×-concentrated solution. 10 μl of co-stimulants were pipetted into the white 96-well plates and 100 μl of cell/compound mix was immediately added in duplicates. The cells were stimulated for 5.5 h at 37° C. and 5% CO2.
After cell stimulation, 50 μl of BriteLitePlus reagent (Perkin Elmer) was added to each well and the bioluminescence was measured with a Wallac EnVision reader (Perkin Elmer).

[1] = molecular target: T1, C-domain of MALT1 (amino acids 329-824) (Homo sapiens, UniProt Q9UDY8); experiment: MALT1 Biochemical Assay - Version 1 (fluorescence lifetime)
T1 sequence (Q9UDY8 329-824): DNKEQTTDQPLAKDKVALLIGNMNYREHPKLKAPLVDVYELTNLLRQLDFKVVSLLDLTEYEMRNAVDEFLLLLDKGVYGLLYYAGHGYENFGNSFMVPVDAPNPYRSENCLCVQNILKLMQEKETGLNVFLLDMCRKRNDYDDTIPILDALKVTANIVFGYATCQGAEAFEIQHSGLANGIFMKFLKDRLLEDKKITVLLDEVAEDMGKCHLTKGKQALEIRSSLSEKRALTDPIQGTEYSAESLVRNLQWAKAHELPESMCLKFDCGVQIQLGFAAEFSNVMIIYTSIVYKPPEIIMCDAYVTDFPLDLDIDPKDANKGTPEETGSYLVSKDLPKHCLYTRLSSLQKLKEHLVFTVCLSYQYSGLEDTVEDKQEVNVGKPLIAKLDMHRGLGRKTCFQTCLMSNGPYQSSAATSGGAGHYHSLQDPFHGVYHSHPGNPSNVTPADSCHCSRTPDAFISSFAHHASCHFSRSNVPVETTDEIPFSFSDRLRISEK
Experimental: The readout parameter is the increase of fluorescence lifetime over time, proportional to enzyme activity.
The assay employs a short peptide substrate labeled with the single fluorophore PT14 as a fluorescence lifetime probe sensitive to the cleavage state of the substrate (PT14: 6-(9-oxo-9H-acridin-10-yl)-hexanoate, AssayMetrics, UK). […] Test compounds were dissolved in 100% (v/v) DMSO or a mixture containing 90% (v/v) DMSO and 10% (v/v) H2O at a stock concentration of 100 mM. Serial dilutions of test compounds were prepared using either 100% (v/v) DMSO or a mixture containing 90% (v/v) DMSO and 10% (v/v) H2O.
where y is the %-inhibition at the inhibitor concentration, x. A1 is the lowest inhibition value, and A2 the maximum inhibition value. The exponent, p, is the Hill coefficient.

Structure (SMILES) | IC50 (Human IL2 promoter) [nM] | IC50 [1] [nM]
CO[C@@H](C)c1c(NC(=O)Nc2ccnc(C(F)(F)F)c2)cnc2cc(Cl)nn12 [Example 3, (S)-1-(2-chloro-7-(1-methoxyethyl)pyrazolo[1,5-a]pyrimidin-6-yl)-3-(2-(trifluoromethyl)pyridin-4-yl)urea] | 36 | 
CC(C)c1c(NC(=O)Nc2cnc(-n3nccn3)c(Cl)c2)cnc2cc(Cl)nn12 [Example 4, 1-(5-chloro-6-(2H-1,2,3-triazol-2-yl)pyridin-3-yl)-3-(2-chloro-7-isopropylpyrazolo[1,5-a]pyrimidin-6-yl)urea] | 103 | 
COc1ncc(NC(=O)Nc2cnc3cc(F)nn3c2[C@H](C)OC)cc1C#N [Example 6, (S)-1-(5-cyano-6-methoxypyridin-3-yl)-3-(2-fluoro-7-(1-methoxyethyl)pyrazolo[1,5-a]pyrimidin-6-yl)urea] | 41 | 4
COCC1(c2c(NC(=O)Nc3cncc(C#N)c3)cnc3cc(Cl)nn23)CC1 [Example 9, 1-(2-chloro-7-(1-(methoxymethyl)cyclopropyl)pyrazolo[1,5-a]pyrimidin-6-yl)-3-(5-cyanopyridin-3-yl)urea] | 93 | 29
CO[C@@H](C)c1c(NC(=O)Nc2cncc(C#N)c2)cnc2cc(F)nn12 [Example 12, (S)-1-(5-cyanopyridin-3-yl)-3-(2-fluoro-7-(1-methoxyethyl)pyrazolo[1,5-a]pyrimidin-6-yl)urea] | 73 | 31
CO[C@H](c1c(NC(=O)Nc2cnc(-n3nccn3)c(C#N)c2)cnc2cc(C)nn12)C(C)C [Example 15, (S)-1-(5-cyano-6-(2H-1,2,3-triazol-2-yl)pyridin-3-yl)-3-(7-(1-methoxy-2-methylpropyl)-2-methylpyrazolo[1,5-a]pyrimidin-6-yl)urea] | 12 | 9
COc1ncc(NC(=O)Nc2cnc3cc(Cl)nn3c2[C@H](C)OC)cc1C#N [Example 16, (S)-1-(2-chloro-7-(1-methoxyethyl)pyrazolo [1,5-a]pyrimidin-6-yl)-3-(5-cyano-6-methoxypyridin-3-yl)urea] | 20 | 3
CO[C@@H](C)c1c(NC(=O)Nc2cc(C(C)O)nc(C(F)(F)F)c2)cnc2cc(F)nn12 (stereo partly drawn) [Example 17, 1-(2-fluoro-7-((S)-1-methoxyethyl)pyrazolo [1,5-a]pyrimidin-6-yl)-3-(2-(1-hydroxyethyl)-6-(trifluoromethyl)pyridin-4-yl)urea] | 87 | 20
CO[C@@H](C)c1c(NC(=O)Nc2ccnc(C(O)C(F)(F)F)c2)cnc2cc(Cl)nn12 (stereo partly drawn) [Example 20, 1-(2-chloro-7-((S)-1-methoxyethyl)pyrazolo [1,5-a]pyrimidin-6-yl)-3-(2-(2,2,2-trifluoro-1-hydroxyethyl)pyridin-4-yl)urea] | 101 | 9
COCCOc1ncc(Cl)cc1NC(=O)Nc1cnc2cc(Cl)nn2c1[C@H](C)OC [Example 21, (S)-1-(5-chloro-2-(2-methoxyethoxy)pyridin-3-yl)-3-(2-chloro-7-(1-methoxyethyl)-pyrazolo[1,5-a]pyrimidin-6-yl)urea] | 47 | 9
COc1ncc(NC(=O)Nc2cnc3cc(C)nn3c2[C@@H](OC)C(C)C)cc1C#N [Example 22, (S)-1-(5-cyano-6-methoxypyridin-3-yl)-3-(7-(1-methoxy-2-methylpropyl)-2-methylpyrazolo[1,5-a]pyrimidin-6-yl)urea] | 25 | 7
CO[C@@H](C)c1c(NC(=O)Nc2ccnc(C#N)c2)cnc2cc(F)nn12 [Example 23, (S)-1-(2-cyanopyridin-4-yl)-3-(2-fluoro-7-(1-methoxyethyl)pyrazolo [1,5-a]pyrimidin-6-yl)urea] | 42 | 16
COc1ncc(NC(=O)Nc2cnc3cc(C)nn3c2[C@H](C)OC)cc1C#N [Example 24, (S)-1-(5-cyano-6-methoxypyridin-3-yl)-3-(7-(1-methoxyethyl)-2-methylpyrazolo[1,5-a]pyrimidin-6-yl)urea] | 62 | 14
CO[C@@H](C)c1c(NC(=O)Nc2cc(Cl)nc(C(=O)N(C)C)c2)cnc2cc(Cl)nn12 [Example 28, (S)-6-chloro-4-(3-(2-chloro-7-(1-methoxyethyl)pyrazolo [1,5-a]pyrimidin-6-yl)ureido)-N, N-dimethylpicolinamide] | 45 | 13

Results, then the compound that gave them:

IC50 (Human IL2 promoter) [nM] | IC50 [1] [nM] | Structure (SMILES)
27 | 7 | COCCO[C@@H](C)c1c(NC(=O)Nc2cnc(-n3nccn3)c(C(F)(F)F)c2)cnc2cc(Cl)nn12 [Example 7, (S)-1-(6-(2H-1,2,3-triazol-2-yl)-5-(trifluoromethyl)pyridin-3-yl)-3-(2-chloro-7-(1-(2-methoxyethoxy)ethyl)pyrazolo[1,5-a]pyrimidin-6-yl)urea]
38 | 2 | CO[C@H](c1c(NC(=O)Nc2cnc(-n3nccn3)c(C(F)(F)F)c2)cnc2cc(Cl)nn12)C(C)C [Example 8, (S)-1-(6-(2H-1,2,3-triazol-2-yl)-5-(trifluoromethyl)pyridin-3-yl)-3-(2-chloro-7-(1-methoxy-2-methylpropyl)pyrazolo [1,5-a]pyrimidin-6-yl)urea]
22 |  | CO[C@@H](C)[C@H](OC)c1c(NC(=O)Nc2cnc(-n3nccn3)c(Cl)c2)cnc2cc(Cl)nn12 [Example 10, 1-(5-chloro-6-(2H-1,2,3-triazol-2-yl)pyridin-3-yl)-3-(2-chloro-7-((1R, 2S)-1,2-dimethoxypropyl)pyrazolo[1,5-a]pyrimidin-6-yl) urea]
12 | 2 | CO[C@@H](C)c1c(NC(=O)Nc2cnc(-n3nccn3)c(C#N)c2)cnc2cc(Cl)nn12 [Example 11, (S)-1-(2-chloro-7-(1-methoxyethyl)pyrazolo[1,5-a]pyrimidin-6-yl)-3-(5-cyano-6-(2H-1,2,3-triazol-2-yl)pyridin-3-yl)urea]
88 | 23 | CC(=O)N1CC[C@@H](O[C@@H](C)c2c(NC(=O)Nc3cnc(-n4nccn4)c(Cl)c3)cnc3cc(Cl)nn23)C1 [Example 13, 1-(7-((S)-1-(((R)-1-acetylpyrrolidin-3-yl)oxy)ethyl)-2-chloropyrazolo[1,5-a]pyrimidin-6-yl)-3-(5-chloro-6-(2H-1,2,3-triazol-2-yl)pyridin-3-yl)urea]
6 | 3 | CO[C@H](c1c(NC(=O)Nc2cnc(-n3nccn3)c(Cl)c2)cnc2cc(F)nn12)C(C)C [Example 14, (S)-1-(5-chloro-6-(2H-1,2,3-triazol-2-yl)pyridin-3-yl)-3-(2-fluoro-7-(1-methoxy-2-methylpropyl)pyrazolo [1,5-a]pyrimidin-6-yl)urea]
19 | 4 | CO[C@@H](C)c1c(NC(=O)Nc2cnc(-n3nccn3)c(C#N)c2)cnc2cc(F)nn12 [Example 18, (S)-1-(5-cyano-6-(2H-1,2,3-triazol-2-yl)pyridin-3-yl)-3-(2-fluoro-7-(1-methoxyethyl)pyrazolo [1,5-a]pyrimidin-6-yl)urea]
56 | 9 | COCC(OC)c1c(NC(=O)Nc2cnc(-n3nccn3)c(C#N)c2)cnc2cc(Cl)nn12 (centres unmarked) [Example 19, 1-(2-chloro-7-(1,2-dimethoxyethyl)pyrazolo [1,5-a]pyrimidin-6-yl)-3-(5-cyano-6-(2H-1,2,3-triazol-2-yl)pyridin-3-yl)urea]
21 | 4 | CO[C@@H](C)[C@H](OC)c1c(NC(=O)Nc2cnc(-n3nccn3)c(C#N)c2)cnc2cc(Cl)nn12 [Example 25, 1-(2-chloro-7-((1R, 2S)-1,2-dimethoxypropyl)pyrazolo[1,5-a]pyrimidin-6-yl)-3-(5-cyano-6-(2H-1,2,3-triazol-2-yl)pyridin-3-yl)urea]
113 | 22 | COc1ncc(NC(=O)Nc2cnc3cc(Cl)nn3c2[C@H](C)O[C@H]2CCN(C(C)=O)C2)cc1C#N [Example 26, 1-(7-((S)-1-(((S)-1-acetylpyrrolidin-3-yl)oxy)ethyl)-2-chloropyrazolo[1,5-a]pyrimidin-6-yl)-3-(5-cyano-6-methoxypyridin-3-yl)urea]
35 | 8 | CO[C@@H](C)c1c(NC(=O)Nc2cnc(-n3nccn3)c(C#N)c2)cnc2cc(C)nn12 [Example 27, (S)-1-(5-cyano-6-(2H-1,2,3-triazol-2-yl)pyridin-3-yl)-3-(7-(1-methoxyethyl)-2-methylpyrazolo[1,5-a]pyrimidin-6-yl)urea]
